Biological target: human recombinant, purified wild type His-B-Raf protein kinase (Homo sapiens, UniProt P15056)
Assay: B-Raf In Vitro ELISA Assay
Assay type: biochemical
Settings: phosphorylation of MEK1; 2.5 nM B-Raf, 0.15 μM MEK1, 10 μM ATP; 1 hour preincubation at 25° C.
Procedure: B-Raf In Vitro ELISA Assay
Activity of human recombinant, purified wild type His-B-Raf protein kinase was determined in vitro using an enzyme-linked immunosorbent assay (ELISA) assay format, which measures phosphorylation of the B-Raf substrate, human recombinant, purified His-derived (detagged) MEK1. The reaction utilized 2.5 nM B-Raf, 0.15 μM MEK1 and 10 μM adenosine triphosphate (ATP) in 40 mM N-(2-hydroxyethyl)piperazine-N′-(2-ethanesulfonic acid hemisodium salt (HEPES), 5 mM 1,4-dithio-DL-threitol (DTT), 10 mM MgCl2, 1 mM ethylenediaminetetraacetic acid (EDTA) and 0.2 M NaCl (1×HEPES buffer), with or without compound at various concentrations, in a total reaction volume of 25 μl in 384 well plates. B-Raf and compound were preincubated in 1×HEPES buffer for 1 hour at 25° C. Reactions were initiated with addition of MEK1 and ATP in 1×HEPES buffer and incubated at 25° C. for 50 minutes and reactions stopped by addition of 10 μl 175 mM EDTA (final concentration 50 mM) in 1×HEPES buffer. 5 μl of the assay mix was then diluted 1:20 into 50 mM EDTA in 1×HEPES buffer, transferred to 384 well black high protein binding plates and incubated overnight at 4° C. Plates were washed in tris buffered saline containing 0.1% Tween20 (TBST), blocked with 50 μl Superblock (Pierce) for 1 hour at 25° C., washed in TBST, incubated with 50 μl rabbit polyclonal anti-phospho-MEK antibody (Cell Signaling) diluted 1:1000 in TBS for 2 hours at 25° C., washed with TBST, incubated with 50 μl goat anti-rabbit horseradish peroxidase-linked antibody (Cell Signaling) diluted 1:2000 in TBS for 1 hour at 25° C. and washed with TBST. 50 μl of fluorogenic peroxidase substrate (Quantablu—Pierce) was added and following incubation for 45-60 minutes, 50 ul QuantabluSTOP (Pierce) was added. Blue fluorescent product was detected at excitation 325 and emission 420 using a TECAN Ultra plate reader. Data was graphed and IC50s calculated using Excel Fit (Microsoft).

Sequence of human recombinant, purified wild type His-B-Raf protein kinase (P15056 whole entry): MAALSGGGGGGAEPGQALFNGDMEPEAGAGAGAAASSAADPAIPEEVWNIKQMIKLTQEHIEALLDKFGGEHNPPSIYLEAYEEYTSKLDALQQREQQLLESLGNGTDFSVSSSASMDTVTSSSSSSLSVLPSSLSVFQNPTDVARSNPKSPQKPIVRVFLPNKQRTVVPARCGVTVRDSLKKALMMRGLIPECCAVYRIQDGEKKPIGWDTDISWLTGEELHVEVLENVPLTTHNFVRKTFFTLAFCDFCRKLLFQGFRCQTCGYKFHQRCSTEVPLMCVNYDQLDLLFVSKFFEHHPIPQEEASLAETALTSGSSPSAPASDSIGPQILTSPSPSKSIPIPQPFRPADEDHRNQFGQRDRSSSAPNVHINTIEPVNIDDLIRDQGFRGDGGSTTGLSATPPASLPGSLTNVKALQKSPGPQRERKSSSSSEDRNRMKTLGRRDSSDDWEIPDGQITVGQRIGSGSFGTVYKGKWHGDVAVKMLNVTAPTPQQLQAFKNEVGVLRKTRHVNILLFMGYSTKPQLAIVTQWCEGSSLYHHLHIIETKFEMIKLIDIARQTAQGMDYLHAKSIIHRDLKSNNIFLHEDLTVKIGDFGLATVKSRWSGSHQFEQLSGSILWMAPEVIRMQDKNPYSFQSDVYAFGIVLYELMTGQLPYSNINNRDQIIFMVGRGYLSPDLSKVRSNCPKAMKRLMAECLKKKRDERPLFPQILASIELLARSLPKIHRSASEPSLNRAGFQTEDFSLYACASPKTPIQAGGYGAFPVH

Row | IC50 [nM] | Structure (SMILES)
1 | 518 | Cc1ccc(NC(=O)c2cccc(C(F)(F)F)c2)cc1-n1cnc2ccc(OCCN3CCOCC3)cc2c1=O [Example 22, N-{4-Methyl-3-[6-(2-morpholinoethoxy)-4-oxo-4H-quinazolin-3-yl]phenyl}-3-trifluoromethylbenzamide]
2 | 3200 | Cc1ccc(NC(=O)c2cccc(C(F)(F)F)c2)cc1-n1c(C)nc2ccc(N3CCOCC3)cc2c1=O [Example 14, N-[4-Methyl-3-(2-methyl-6-morpholin-4-yl-4-oxo-4H-quinazolin-3-yl)phenyl]-3-trifluoromethylbenzamide]
3 | 535 | Cc1ccc(NC(=O)c2cccc(C(F)(F)F)c2)cc1-n1cnc2ccc(NCCCN(C)C)cc2c1=O [Example 9, N-{3-[6-(3-Dimethylaminopropylamino)-4-oxo-4H-quinazolin-3-yl]-4-methylphenyl}-3-trifluoromethylbenzamide]

Source: patent publication US20080275022A1, “Substituted Quinazolones as Anti-Cancer Agents” (AstraZeneca AB, priority 2004, published 2008)
